Measured values as given in patent US20230233569A1 (Revolution Medicines, Inc., priority 2020, published 2023).
Where two headings read alike, the source gives them in different places.

How the values were obtained:
KRAS Q61H = KRAS Q61H (Homo sapiens, UniProt P01116+P62937, Q61H); experiment: Disruption of BRAF RBD interaction with Ras (FRET / MOA assay, with Cyclophilin A); assay type: biochemical; settings: KRAS Q61H; read-out: KRAS Q61H FRET data IC50
Summary of the method: (§1)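 TR-FRET in 25 mM HEPES pH 7.3, 100 mM NaCl, 5 mM MgCl2, 0.1% BSA: 25 μM Cyclophilin A, 12.5 nM His6-Ras-GMPPNP, 50 nM GST-BRAF RBD with compound (10-point 3-fold series from 30 μM), 3 h at 25° C. Anti-His Eu/anti-GST APC added, 1.5 h more; IC50 from decreased FRET ratio versus DMSO.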

NRAS Q61R = NRAS Q61R (Homo sapiens, UniProt P01111+P62937, Q61R); experiment: as above; assay type: biochemical; settings: NRAS Q61R; read-out: NRAS Q61R FRET data IC50
Chain of NRAS Q61R (P01111 whole entry Q61R): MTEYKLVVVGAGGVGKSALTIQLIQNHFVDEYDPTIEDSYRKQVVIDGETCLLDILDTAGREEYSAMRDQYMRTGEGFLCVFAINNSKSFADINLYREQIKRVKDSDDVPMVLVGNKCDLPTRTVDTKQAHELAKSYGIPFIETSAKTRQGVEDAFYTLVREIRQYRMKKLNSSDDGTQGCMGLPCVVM
Chain of NRAS Q61R (P62937 whole entry): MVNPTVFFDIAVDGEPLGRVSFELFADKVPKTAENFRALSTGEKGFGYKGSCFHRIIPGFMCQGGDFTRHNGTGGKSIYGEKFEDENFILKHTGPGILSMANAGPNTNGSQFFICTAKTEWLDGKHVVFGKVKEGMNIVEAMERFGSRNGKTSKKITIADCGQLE
Summary of the method: as §1

NRAS Q61K = NRAS Q61K (Homo sapiens, UniProt P01111+P62937, Q61K); experiment: as above; assay type: biochemical; settings: NRAS Q61K; read-out: NRAS Q61K FRET data IC50
Chain of NRAS Q61K (P01111 whole entry Q61K): as the sequence (P01111 whole entry Q61R) above, with R61K counted along it
Chain of NRAS Q61K (P62937 whole entry): as the sequence (P62937 whole entry) above
Summary of the method: as §1

[1] = tested on: K-Ras G12C (NCI-H358 cells); experiment: Potency assay: pERK (AlphaLISA SureFire or In-Cell Western); assay type: cell-based; settings: Homo sapiens, NCI-H358
Summary of the method: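 NCI-H358 cells plated overnight, then treated 4 h at 37 °C with 10-point 3-fold DMSO dilutions (10 mM top stock), in duplicate. pERK1/2 read by AlphaLISA SureFire Ultra lysate assay or by In-Cell Western with DRAQ5 DNA stain. IC50 from 4-parameter sigmoidal fit of signal vs log concentration.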

[2] = H358 KRAS G12C, read-out: pERK EC50

Chain of KRAS Q61H (P01116 1-169 isoform P01116-2 Q61H limits assumed): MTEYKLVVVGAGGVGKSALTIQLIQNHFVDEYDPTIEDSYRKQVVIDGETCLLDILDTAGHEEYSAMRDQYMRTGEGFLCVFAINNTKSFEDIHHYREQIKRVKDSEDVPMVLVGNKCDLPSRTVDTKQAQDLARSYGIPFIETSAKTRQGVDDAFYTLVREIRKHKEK
Chain of KRAS Q61H (P62937 whole entry): as the sequence (P62937 whole entry) above

Row | SMILES | IC50 (KRAS Q61H) | IC50 (NRAS Q61R) | IC50 (NRAS Q61K) | EC50 ([1]; read-out: H358 pERK EC50) | EC50 [1, 2]
1 | CCn1c(-c2cccnc2[C@H](C)OC)c2c3cc(ccc31)-c1csc(n1)C[C@H](NC(=O)[C@H](C(C)C)N(C)C(=O)N(C)C1CN(C(=O)/C=C/C(C)(C)O)C1)C(=O)N1CCC[C@H](N1)C(=O)OCC(C)(C)C2 (atropisomer, axis not shown) [Example A350] | 10 to 100 nM | 100 to 1000 nM | 10 to 100 nM | – | < 5000 nM
2 | CCn1c(-c2cccnc2[C@H](C)OC)c2c3cc(ccc31)-c1cccc(c1)C[C@H](NC(=O)[C@@H](COC1CN(C(=O)C#C[C@@H]3COCCN3C)C1)C(C)C)C(=O)N1CCC[C@H](N1)C(=O)OCC(C)(C)C2 (atropisomer, axis not shown) [Example A648] | > 10000 nM | > 10000 nM | > 10000 nM | – | < 5000 nM
3 | C=CC(=O)N1CC[C@H](C(=O)N(C)[C@H](C(=O)N[C@H]2Cc3nsc(n3)-c3ccc4c(c3)c(c(-c3cccnc3[C@H](C)OC)n4CC)CC(C)(C)COC(=O)[C@@H]3CCCN(N3)C2=O)C(C)C)C1 (atropisomer, axis not shown) [Example A694] | 100 to 1000 nM | 1000 to 10000 nM | 100 to 1000 nM | – | < 5000 nM
4 | CCn1c(-c2cccnc2[C@H](C)OC)c2c3cc(ccc31)-c1csc(n1)C[C@H](NC(=O)[C@H](COC1CN(C(=O)C#CC(C)(C)N(C)C)C1)OC)C(=O)N1CCC[C@H](N1)C(=O)OCC(C)(C)C2 (atropisomer, axis not shown) [Example A705] | 1000 to 10000 nM | > 10000 nM | 1000 to 10000 nM | – | < 5000 nM
5 | C=CC(=O)N1CC(OC[C@H](C(=O)N[C@H]2Cc3cc(F)cc(c3)-c3ccc4c(c3)c(c(-c3cccnc3[C@H](C)OC)n4CC)CC(C)(C)COC(=O)[C@@H]3CCCN(N3)C2=O)C(C)C)C1 (atropisomer, axis not shown) [Example A725] | 100 to 1000 nM | 1000 to 10000 nM | 1000 to 10000 nM | – | < 5000 nM
6 | CO[C@@H](COC1CN(C(=O)C#CC(C)(C)N(C)C)C1)C(=O)N[C@H]1Cc2cccc(c2)-c2ccc3c(c2)c(c(-c2cccnc2[C@H](C)OC)n3CC(F)(F)F)CC(C)(C)COC(=O)[C@@H]2CCCN(N2)C1=O [Example A556] | – | > 10000 nM | > 10000 nM | – | < 5000 nM
7 | CCn1c(-c2cccnc2[C@H](C)OC)c2c3cc(ccc31)N1CCO[C@@H](C[C@H](NC(=O)[C@H](C(C)C)N(C)C(=O)[C@@]3(F)CCN(C(=O)C#CC(C)(C)N4CCC4)C3)C(=O)N3CCC[C@H](N3)C(=O)OCC(C)(C)C2)C1 [Example A726] | – | > 10000 nM | > 10000 nM | – | < 5000 nM

The next lines start with results.

Row | IC50 (KRAS Q61H) | IC50 (NRAS Q61R) | IC50 (NRAS Q61K) | EC50 ([1]; read-out: H358 pERK EC50) | SMILES | EC50 [1, 2]
8 | 10 to 100 nM | 100 to 1000 nM | 100 to 1000 nM | 18 nM | CCn1c(-c2cccnc2[C@H](C)OC)c2c3cc(ccc31)-c1cc(O)cc(c1)C[C@H](NC(=O)[C@H](C(C)C)N(C)C(=O)[C@H]1CCN(C(=O)OC)C1)C(=O)N1CCC[C@H](N1)C(=O)OCC(C)(C)C2 (atropisomer, axis not shown) [Example A3] | –
9 | 1000 to 10000 nM | 1000 to 10000 nM | 1000 to 10000 nM | – | C=CC(=O)N1CC[C@]2(C1)OCN(C(=O)N(C)[C@H](C(=O)N[C@H]1Cc3cccc(n3)-c3ccc4c(c3)c(c(-c3cccnc3[C@H](C)OC)n4CC)CC(C)(C)COC(=O)[C@@H]3CCCN(N3)C1=O)C(C)C)C2=O (atropisomer, axis not shown) [Example A652] | < 5000 nM
10 | 100 to 1000 nM | 100 to 1000 nM | 100 to 1000 nM | – | C=CC(=O)N1CC[C@@H](N(C)C(=O)N(C)[C@H](C(=O)N[C@H]2Cc3nc(cs3)-c3ccc4c(c3)c(c(-c3cccnc3[C@H](C)OC)n4CC(F)(F)F)CC(C)(C)COC(=O)[C@@H]3CCCN(N3)C2=O)C(C)C)C1 (atropisomer, axis not shown) [Example A728] | < 5000 nM
11 | 10 to 100 nM | 100 to 1000 nM | 10 to 100 nM | – | C=CC(=O)N1CC[C@@]2(CCN2C(=O)N(C)[C@H](C(=O)N[C@H]2Cc3nc(cs3)-c3ccc4c(c3)c(c(-c3cccnc3[C@H](C)OC)n4CC)CC(C)(C)COC(=O)C3CCCN(N3)C2=O)N(C)C)C1 (single isomer, unassigned) [Example A661] | < 5000 nM
